The source made the active and inactive calls. The rule behind the calls is not given here.
Tests used:
SK-OV-3 [1] = experiment: Cell cycle arrest in human SKOV3 cells assessed as monoaster phenotype at 100 nM after 22 hrs by confocal microscopic analysis; assay type: functional, cell-based
SK-OV-3 [2] = experiment: Cytotoxicity against human SKOV3 cells assessed as inhibition of KSP-mediated cell cycle progression after 44 hrs by MTT assay; assay type: functional; details: SK-OV-3, 44 h
SK-OV-3 [3] = experiment: Nonspecific cytotoxicity against human SKOV3 cells after 44 hrs by MTT assay; assay type: functional; details: SK-OV-3, 44 h
MCF7 [4] = experiment: Cytotoxicity against human MCF7 cells assessed as inhibition of KSP-mediated cell cycle progression after 44 hrs by MTT assay; assay type: functional; details: MCF7, 44 h
MCF7 [5] = experiment: Nonspecific cytotoxicity against human MCF7 cells after 44 hrs by MTT assay; assay type: functional; details: MCF7, 44 h
PC-3 [6] = experiment: Cytotoxicity against human PC3 cells assessed as inhibition of KSP-mediated cell cycle progression after 44 hrs by MTT assay; assay type: functional; details: PC-3, 44 h
PC-3 [7] = experiment: Nonspecific cytotoxicity against human PC3 cells after 44 hrs by MTT assay; assay type: functional; details: PC-3, 44 h
DU-145 [8] = experiment: Cytotoxicity against human DU145 cells assessed as inhibition of KSP-mediated cell cycle progression after 44 hrs by MTT assay; assay type: functional; details: DU-145, 44 h
DU-145 [9] = experiment: Nonspecific cytotoxicity against human DU145 cells after 44 hrs by MTT assay; assay type: functional; details: DU-145, 44 h
[10] = target: T1, Kinesin-1 heavy chain (Homo sapiens) (UniProt P33176); experiment: Inhibition of KNH (unknown origin)-mediated ATP hydrolysis assessed as residual activity at 10 uM after 10 to 20 mins by spectrophotometric analysis
T1 sequence (whole entry): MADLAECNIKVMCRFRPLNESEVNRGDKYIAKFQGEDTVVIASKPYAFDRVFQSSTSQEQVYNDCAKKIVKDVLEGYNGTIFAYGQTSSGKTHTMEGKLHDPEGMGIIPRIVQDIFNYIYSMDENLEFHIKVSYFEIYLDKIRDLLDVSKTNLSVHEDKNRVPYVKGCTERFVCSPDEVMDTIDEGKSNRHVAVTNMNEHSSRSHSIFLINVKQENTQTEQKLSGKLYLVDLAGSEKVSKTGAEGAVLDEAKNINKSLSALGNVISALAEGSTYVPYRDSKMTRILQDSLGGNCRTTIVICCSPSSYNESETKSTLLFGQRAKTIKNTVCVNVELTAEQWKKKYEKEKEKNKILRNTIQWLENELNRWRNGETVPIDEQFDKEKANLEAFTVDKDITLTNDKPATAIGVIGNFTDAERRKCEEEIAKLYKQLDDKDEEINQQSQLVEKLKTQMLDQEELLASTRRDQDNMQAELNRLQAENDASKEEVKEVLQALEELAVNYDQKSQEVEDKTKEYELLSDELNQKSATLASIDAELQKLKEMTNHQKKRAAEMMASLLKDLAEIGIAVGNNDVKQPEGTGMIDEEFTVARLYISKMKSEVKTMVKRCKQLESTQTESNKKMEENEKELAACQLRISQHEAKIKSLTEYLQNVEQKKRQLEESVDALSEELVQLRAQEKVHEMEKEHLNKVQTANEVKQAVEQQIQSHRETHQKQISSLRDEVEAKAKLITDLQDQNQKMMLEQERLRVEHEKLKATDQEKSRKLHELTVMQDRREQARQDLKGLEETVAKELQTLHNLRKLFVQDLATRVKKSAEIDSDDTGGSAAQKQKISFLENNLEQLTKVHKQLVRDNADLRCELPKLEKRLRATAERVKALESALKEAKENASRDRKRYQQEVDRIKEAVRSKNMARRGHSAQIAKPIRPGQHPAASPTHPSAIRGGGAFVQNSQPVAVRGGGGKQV

[11] = target: T2, Kinesin-like protein KIFC3 (Homo sapiens) (UniProt Q9BVG8); experiment: Inhibition of KIFC3 (unknown origin)-mediated ATP hydrolysis assessed as residual activity at 10 uM after 10 to 20 mins by spectrophotometric analysis
T2 sequence (whole entry): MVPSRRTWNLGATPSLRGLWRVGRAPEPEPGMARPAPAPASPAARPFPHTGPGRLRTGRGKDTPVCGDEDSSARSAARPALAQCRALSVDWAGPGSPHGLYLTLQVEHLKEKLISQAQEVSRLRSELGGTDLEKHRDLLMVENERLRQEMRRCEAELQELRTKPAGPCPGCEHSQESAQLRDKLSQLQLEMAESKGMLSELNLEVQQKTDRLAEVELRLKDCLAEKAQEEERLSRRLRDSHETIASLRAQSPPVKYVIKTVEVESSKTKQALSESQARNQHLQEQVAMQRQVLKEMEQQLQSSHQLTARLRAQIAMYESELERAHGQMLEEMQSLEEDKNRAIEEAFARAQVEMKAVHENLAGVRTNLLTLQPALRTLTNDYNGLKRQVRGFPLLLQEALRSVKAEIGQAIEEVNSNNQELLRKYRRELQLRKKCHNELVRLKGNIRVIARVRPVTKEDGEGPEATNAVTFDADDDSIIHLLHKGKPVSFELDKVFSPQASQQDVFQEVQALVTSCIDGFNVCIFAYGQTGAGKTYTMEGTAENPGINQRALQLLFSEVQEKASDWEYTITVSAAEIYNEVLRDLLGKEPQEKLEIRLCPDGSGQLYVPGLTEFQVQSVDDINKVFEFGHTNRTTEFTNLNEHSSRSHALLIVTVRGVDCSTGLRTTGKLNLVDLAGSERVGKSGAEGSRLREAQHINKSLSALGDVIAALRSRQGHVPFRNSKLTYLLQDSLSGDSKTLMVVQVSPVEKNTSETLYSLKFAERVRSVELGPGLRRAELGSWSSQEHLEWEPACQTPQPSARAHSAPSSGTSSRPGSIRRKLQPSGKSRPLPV

[12] = target: T3, Kinesin-like protein KIF2C (Homo sapiens) (UniProt Q99661); experiment: Inhibition of MCAK (unknown origin)-mediated ATP hydrolysis assessed as residual activity at 10 uM after 10 to 20 mins by spectrophotometric analysis
T3 sequence (whole entry): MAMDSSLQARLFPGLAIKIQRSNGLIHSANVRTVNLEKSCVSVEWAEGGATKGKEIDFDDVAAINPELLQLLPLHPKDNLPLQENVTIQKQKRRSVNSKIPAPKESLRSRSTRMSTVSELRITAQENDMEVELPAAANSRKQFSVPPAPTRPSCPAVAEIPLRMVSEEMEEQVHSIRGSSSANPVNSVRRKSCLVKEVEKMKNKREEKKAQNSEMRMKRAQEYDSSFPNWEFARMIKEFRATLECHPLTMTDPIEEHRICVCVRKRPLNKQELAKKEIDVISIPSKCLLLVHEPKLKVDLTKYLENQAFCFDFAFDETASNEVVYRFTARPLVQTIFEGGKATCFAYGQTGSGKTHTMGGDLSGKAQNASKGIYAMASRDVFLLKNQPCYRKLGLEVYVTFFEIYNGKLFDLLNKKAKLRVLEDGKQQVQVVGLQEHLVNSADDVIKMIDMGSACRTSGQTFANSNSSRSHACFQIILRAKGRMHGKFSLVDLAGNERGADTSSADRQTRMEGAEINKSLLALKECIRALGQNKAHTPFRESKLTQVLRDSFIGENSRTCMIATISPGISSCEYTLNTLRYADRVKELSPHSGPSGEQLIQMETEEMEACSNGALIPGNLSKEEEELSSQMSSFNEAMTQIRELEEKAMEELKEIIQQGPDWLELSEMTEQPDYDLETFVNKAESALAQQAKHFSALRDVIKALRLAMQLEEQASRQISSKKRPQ

[13] = target: Centromere-associated protein E (Homo sapiens) (UniProt Q02224); experiment: Inhibition of CENP-E (unknown origin)-mediated ATP hydrolysis assessed as residual activity at 10 uM after 10 to 20 mins by spectrophotometric analysis
Chain of Centromere-associated protein E (Homo sapiens) (Q02224 whole entry): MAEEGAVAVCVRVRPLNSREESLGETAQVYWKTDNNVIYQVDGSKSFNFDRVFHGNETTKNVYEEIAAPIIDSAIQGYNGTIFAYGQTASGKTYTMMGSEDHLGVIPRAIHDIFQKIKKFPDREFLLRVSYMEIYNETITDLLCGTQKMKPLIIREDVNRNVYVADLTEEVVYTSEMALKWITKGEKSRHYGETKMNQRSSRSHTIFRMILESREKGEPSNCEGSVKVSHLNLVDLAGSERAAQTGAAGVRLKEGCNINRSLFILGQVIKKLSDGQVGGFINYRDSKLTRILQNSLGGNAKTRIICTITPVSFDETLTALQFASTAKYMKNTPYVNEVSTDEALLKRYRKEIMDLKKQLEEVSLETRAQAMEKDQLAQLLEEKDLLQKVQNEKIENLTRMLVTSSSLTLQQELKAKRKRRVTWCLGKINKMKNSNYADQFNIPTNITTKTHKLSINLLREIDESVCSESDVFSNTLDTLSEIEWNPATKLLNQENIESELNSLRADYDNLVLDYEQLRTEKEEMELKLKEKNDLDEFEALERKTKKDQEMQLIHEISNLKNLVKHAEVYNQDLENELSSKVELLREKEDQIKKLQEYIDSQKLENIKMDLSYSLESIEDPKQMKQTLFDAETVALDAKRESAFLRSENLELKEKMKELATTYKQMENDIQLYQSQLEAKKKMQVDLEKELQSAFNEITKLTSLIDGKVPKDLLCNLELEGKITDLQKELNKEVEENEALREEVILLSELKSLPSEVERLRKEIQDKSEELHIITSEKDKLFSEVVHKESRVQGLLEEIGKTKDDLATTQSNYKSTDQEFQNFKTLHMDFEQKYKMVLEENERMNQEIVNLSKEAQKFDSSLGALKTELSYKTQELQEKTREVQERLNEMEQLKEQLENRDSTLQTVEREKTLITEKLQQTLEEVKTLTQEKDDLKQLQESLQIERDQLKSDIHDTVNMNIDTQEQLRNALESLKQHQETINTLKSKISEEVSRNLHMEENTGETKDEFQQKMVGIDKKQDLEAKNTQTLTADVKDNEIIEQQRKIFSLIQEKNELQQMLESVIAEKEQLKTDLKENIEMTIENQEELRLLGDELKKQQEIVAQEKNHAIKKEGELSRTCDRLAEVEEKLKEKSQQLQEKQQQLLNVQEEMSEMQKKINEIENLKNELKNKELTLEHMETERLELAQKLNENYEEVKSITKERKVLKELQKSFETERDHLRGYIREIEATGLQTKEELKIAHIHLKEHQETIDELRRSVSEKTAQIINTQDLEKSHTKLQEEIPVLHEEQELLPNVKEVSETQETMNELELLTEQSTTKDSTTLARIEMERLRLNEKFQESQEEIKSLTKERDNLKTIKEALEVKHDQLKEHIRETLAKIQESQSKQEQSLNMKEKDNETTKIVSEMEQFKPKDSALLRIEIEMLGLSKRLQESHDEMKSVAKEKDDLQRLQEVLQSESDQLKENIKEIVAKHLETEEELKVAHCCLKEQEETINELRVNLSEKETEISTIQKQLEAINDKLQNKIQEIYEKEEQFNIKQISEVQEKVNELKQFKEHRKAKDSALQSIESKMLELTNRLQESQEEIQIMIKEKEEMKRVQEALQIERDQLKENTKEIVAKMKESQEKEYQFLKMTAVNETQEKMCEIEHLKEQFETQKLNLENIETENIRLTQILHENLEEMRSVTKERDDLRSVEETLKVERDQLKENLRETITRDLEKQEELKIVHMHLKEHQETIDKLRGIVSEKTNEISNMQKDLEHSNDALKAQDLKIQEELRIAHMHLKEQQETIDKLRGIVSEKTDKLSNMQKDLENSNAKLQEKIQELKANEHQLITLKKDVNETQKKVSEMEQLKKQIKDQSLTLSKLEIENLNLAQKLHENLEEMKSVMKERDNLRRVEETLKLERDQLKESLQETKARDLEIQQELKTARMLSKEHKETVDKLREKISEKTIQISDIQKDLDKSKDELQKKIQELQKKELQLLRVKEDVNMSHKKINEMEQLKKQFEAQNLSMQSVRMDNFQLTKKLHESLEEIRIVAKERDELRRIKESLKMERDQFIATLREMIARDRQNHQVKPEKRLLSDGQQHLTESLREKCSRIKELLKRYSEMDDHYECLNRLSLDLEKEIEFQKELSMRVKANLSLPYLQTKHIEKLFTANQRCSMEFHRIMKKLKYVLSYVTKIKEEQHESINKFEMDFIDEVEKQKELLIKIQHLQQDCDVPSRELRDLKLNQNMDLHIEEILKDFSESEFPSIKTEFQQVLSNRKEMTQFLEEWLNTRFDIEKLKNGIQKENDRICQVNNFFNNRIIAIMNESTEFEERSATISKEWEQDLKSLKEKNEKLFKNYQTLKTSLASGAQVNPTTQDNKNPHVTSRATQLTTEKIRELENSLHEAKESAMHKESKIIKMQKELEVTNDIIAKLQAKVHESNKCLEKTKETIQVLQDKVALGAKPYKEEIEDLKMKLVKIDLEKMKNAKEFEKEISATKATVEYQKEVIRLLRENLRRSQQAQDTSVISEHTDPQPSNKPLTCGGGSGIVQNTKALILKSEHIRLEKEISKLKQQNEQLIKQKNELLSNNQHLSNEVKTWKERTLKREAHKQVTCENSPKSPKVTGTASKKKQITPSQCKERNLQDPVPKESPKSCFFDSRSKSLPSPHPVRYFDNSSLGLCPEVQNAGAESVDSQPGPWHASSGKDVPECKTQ

Activity [10]	Activity [11]	Activity [12]	Activity [13]	SMILES	Activity (SK-OV-3 [1])	GI50 (SK-OV-3 [2])	GI50 (SK-OV-3 [3])	GI50 (MCF7 [4])	GI50 (MCF7 [5])	GI50 (PC-3 [6])	GI50 (PC-3 [7])	GI50 (DU-145 [8])	GI50 (DU-145 [9])
–	–	–	–	CC(C)[C@H](c1nc2cc(Cl)ccc2c(=O)n1Cc1ccccc1)N(CCCN)C(=O)c1cccc(F)c1	Active	–	–	–	–	–	–	–	–
–	–	–	–	CC(C)C(c1nc2cc(Cl)ccc2c(=O)n1Cc1ccccc1)N(CCCN)C(=O)c1ccccc1F (racemic)	–	35.6 nM	3100 nM	17.7 nM	1900 nM	1.9 nM	350 nM	48.5 nM	–
–	–	–	–	CC(C)C(c1nc2cc(Cl)ccc2c(=O)n1Cc1ccccc1)N(CCCN)C(=O)c1ccc(F)cc1 (racemic)	–	2700 nM	4300 nM	4000 nM	2700 nM	1100 nM	6300 nM	1100 nM	3100 nM
98.5%	98.3%	97%	97.7%	CCOC(=O)C1=C(C)NC(=S)N[C@@H]1c1cccc(O)c1	–	–	–	–	–	–	–	–	–

Source: ChEMBL document CHEMBL2321780, “Fluorinated quinazolinones as potential radiotracers for imaging kinesin spindle protein expression” (2013)
